Assay results from patent publication US10059689B2, “Substituted heteroaryl compounds and methods of use” (Sunshine Lake Pharma Co., Ltd., priority 2014, dated 2018).

Biological target: T1, TYK2 (h) (Homo sapiens, UniProt P29597)
T1 construct: purchased Millipore UK Ltd (contract assay service)
Test: TYK2 (h) kinase assay
Format: biochemical
Protocol: Kinase assays can be performed by measurement of incorporation of γ-33P ATP into immobilized myelin basic protein (MBP). High binding white 384 well plates (Greiner) are coated with MBP (Sigma #M-1891) by incubation of 60 μL/well of 20 μg/mL MBP in Tris-buffered saline (TBS; 50 mM Tris pH 8.0, 138 mM NaCl, 2.7 mM KCl) for 24 h at 4° C. Plates are washed 3× with 100 μL TBS. Kinase reactions are carried out in a total volume of 34 μL in kinase buffer (according to the need to make, for example, 5 mM Hepes pH 7.6, 15 mM NaCl, 0.01% bovine gamma globulin (Sigma #I-5506), 10 mM MgCl2, 1 mM DTT, 0.02% TritonX-100). Compound dilutions are performed in DMSO and added to assay wells to a final DMSO concentration of 1%. Each data point is measured in duplicate, and at least two duplicate assays are performed for each individual compound determination. […] A mixture of unlabeled ATP and γ-33P ATP is added to start the reaction (2×10^6 cpm of γ-33P ATP per well (3000 Ci/mmole) and 10 μM unlabeled ATP, typically. The reactions are carried out for 1 h at room temperature with shaking Plates are washed 7× with TBS, followed by the addition of 50 μL/well scintillation fluid (Wallac). Plates are read using a Wallac Trilux counter. This is only one format of such assays; various other formats are possible, as known to one skilled in the art. […]

T1 sequence (P29597 whole entry): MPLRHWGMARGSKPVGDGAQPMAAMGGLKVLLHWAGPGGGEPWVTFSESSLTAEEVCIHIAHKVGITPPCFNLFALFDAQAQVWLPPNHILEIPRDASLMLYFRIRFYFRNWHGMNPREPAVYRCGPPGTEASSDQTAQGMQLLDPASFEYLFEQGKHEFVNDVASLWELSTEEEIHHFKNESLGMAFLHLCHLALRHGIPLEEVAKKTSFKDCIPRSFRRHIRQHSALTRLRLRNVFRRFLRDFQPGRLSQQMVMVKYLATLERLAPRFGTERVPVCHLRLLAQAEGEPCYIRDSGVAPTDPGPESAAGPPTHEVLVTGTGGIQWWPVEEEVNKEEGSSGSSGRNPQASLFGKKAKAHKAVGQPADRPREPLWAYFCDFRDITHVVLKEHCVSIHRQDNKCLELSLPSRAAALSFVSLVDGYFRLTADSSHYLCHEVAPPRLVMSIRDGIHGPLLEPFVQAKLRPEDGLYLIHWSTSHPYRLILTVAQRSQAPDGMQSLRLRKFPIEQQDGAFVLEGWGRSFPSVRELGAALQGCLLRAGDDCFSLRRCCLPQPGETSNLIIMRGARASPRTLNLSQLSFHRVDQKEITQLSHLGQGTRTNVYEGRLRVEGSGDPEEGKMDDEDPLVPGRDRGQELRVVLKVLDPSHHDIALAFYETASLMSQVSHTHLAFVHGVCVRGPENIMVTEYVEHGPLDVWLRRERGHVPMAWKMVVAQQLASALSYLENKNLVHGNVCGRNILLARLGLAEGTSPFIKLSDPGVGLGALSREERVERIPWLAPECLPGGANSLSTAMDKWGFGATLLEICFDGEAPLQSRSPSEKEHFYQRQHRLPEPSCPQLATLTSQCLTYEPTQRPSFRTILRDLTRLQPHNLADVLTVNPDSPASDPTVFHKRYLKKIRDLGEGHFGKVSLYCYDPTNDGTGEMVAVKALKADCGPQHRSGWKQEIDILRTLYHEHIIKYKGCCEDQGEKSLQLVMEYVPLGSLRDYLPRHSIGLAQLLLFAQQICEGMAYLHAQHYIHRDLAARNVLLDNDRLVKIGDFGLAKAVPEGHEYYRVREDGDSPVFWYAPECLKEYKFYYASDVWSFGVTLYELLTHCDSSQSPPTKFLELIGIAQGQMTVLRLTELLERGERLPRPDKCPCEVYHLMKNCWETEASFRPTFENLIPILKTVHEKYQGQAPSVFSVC

IC50 [µM] | SMILES
0.022 | CN(c1nc(Nc2cnn(C)c2)ncc1Cl)C1CCN(c2ccc(C#N)cn2)CC1 [Ex. 5, 6-(4-((5-chloro-2-((1-methyl-1H-pyrazol-4-yl)amino)pyrimidin-4-yl) (methyl)amino)piperidin-1-yl)nicotinonitrile]
0.002 | Cc1c2ccc(Nc3ncc(Cl)c(NC4CCN(c5ccc(C#N)cn5)CC4)n3)cc2nn1C [Ex. 4]
